Entries after “also recorded” stand apart in the source; their conditions may differ. Where two headings read alike, the source gives them in different places.
Key:
[1] = system: trypsin; format: in vitro ADME; conditions: trypsin 0.5 μg/mL, Tris·HCl 50 mM pH 7.8 with CaCl2 9 mM, 24 h; MALDI-TOF MS read-out
Method: Proteolytic stability studies: Peptoid stability was confirmed by comparing the tryptic digestion of 7 with LL‐37 (Innovagen AB, Lund, Sweden). Stock solutions (5 mg mL^−1) of 7 and LL‐37 were prepared, and samples (7.5 μL) were incubated with trypsin (0.5 μg mL^−1) and incubation buffer (37.5 μL, Tris⋅HCl (50 mM, pH 7.8) containing CaCl2 (9 mM)). After 0 h (for mass spectrometric verification) or 24 h, the reaction mixture was acidified by addition of TFA (10 %, 50 μL) to denature the enzyme and stop enzyme activity. The samples were air‐dried and then reconstituted in acetonitrile/water/TFA (50 μL, 40:59.5:0.5, v/v/v), and an aliquot (1 μL) was placed onto a stainless steel MALDI target. Samples were covered immediately with matrix (1 μL, α‐cyano‐4‐hydroxycinnamic acid (53 mM in acetonitrile/water/TFA, 70:29.98:0.02, v/v/v)). MALDI‐TOF MS was performed on a linear TOF Voyager DE‐mass spectrometer (PerSeptive Biosystems, Farmingham, MA, USA). The samples were analysed in positive detection mode, and internal mass calibration with known standards established the mass accuracy to ±0.1 %. Fifty laser scans were averaged for each sample, and variable laser intensity was used to ensure the most representative mass spectra for the wells.
4. Proteolytic Stability Study […]

[2] = system: HepG2; experiment: alamarBlue cytotoxicity assay, HepG2 cells; conditions: for ED50 HepG2: alamarBlue viability, 2-100 μM from DMSO stock, 1 h with compound then 24 h incubation at 37 °C, fluorescence, triplicate on a minimum of two occasions; for Toxicity to HepG2 cells (in words): alamarBlue, up to 100 μM
Method: (§7) Peptoid cytotoxicity studies: All 18 peptoids were tested for cytotoxicity against HepG2 epithelial (Sigma–Aldrich) and HaCaT keratinocyte (ThermoFisher) cell lines, Cytotoxicity analyses were performed in Costar 96‐well plates (Thermo Fisher Scientific) with alamarBlue (Invitrogen/Thermo Fisher Scientific) for cell viability detection as described by the manufacturer. HepG2 and HaCaT cells were grown at 37 °C under CO2 (5 %) in DMEM (high glucose) supplemented with heat‐inactivated foetal bovine sera (FBS, 10 %; Biosera, Uckfield, UK) and penicillin/streptomycin (1 %). Cells were counted in a Neubauer Improved Haemocytometer. HepG2 or HaCaT cells were seeded 24 h prior to treatment in 96‐well plates (2×10^4 cells per well in 100 μL). After 24 h, cells were incubated in triplicate with a dilution series of compound (2–100 μM from 5 mM stock solutions in DMSO) in the medium (50 μL) for 1 h. An aliquot (40 μL) was removed from each well, before the addition of medium (90 μL) followed by incubation for 24 h (37 °C, 5 % CO2). Then, alamarBlue (10 μL) was added to each well before incubation (2 h for Hep G2, 1 h for HaCaT) prior to assessing cell viability in a fluorescent plate reader (Biotek, Winooski, VT; λ ex=560 nm, λ em=600 nm). All data were measured in triplicate on a minimum of two occasions.
(§8) Toxicity was determined using an alamarBlue® cytotoxicity assay.

[3] = system: HaCaT; experiment: alamarBlue cytotoxicity assay, HaCaT keratinocytes; conditions: for ED50 HaCaT: alamarBlue viability, 2-100 μM from DMSO stock, 1 h with compound then 24 h incubation at 37 °C, fluorescence, triplicate on a minimum of two occasions; for Toxicity to HaCaT cells (in words): alamarBlue, up to 100 μM
Method: as §7, §8

[4] = system: S. aureus (NCTC 6571) biofilm; experiment: Crystal violet assay, S. aureus monospecies biofilm; format: cell-based, Staphylococcus aureus; conditions: peptoid 100 μM, 24 h treatment of 4 h biofilm; n=3
Method: (§1) Microorganism strains and growth conditions: C. albicans (NCTC 3179) was subcultured aerobically on Sabouraud agar plates, prepared by using Sabouraud dextrose powder and agar (Oxoid, ThermoFisher) and propagated in yeast peptone dextrose broth. E. coli (ATCC 29522) and S. aureus (NCTC 6571) were grown on blood agar plates (Fanin, Dublin, Ireland) and propagated in brain heart infusion (BHI) broth (Oxoid, ThermoFisher).
(§2) Preparation and treatment of single‐species biofilms: Overnight cultures of C. albicans were washed and resuspended (1.0×10^6 cells per mL) in RPMI‐1640 (Sigma–Aldrich). Overnight cultures of S. aureus or E. coli were washed and resuspended (5.0×10^6 cells per mL) in BHI broth. Samples (100 μL) were added to microtitre plate wells (Thermo Fisher Scientific), and a biofilm was allowed to form for 4 h. Wells were washed with PBS (3×200 μL) to facilitate removal of planktonic cells, and the biofilms were then treated with 1–18 (100 μM in the appropriate medium). Plates were incubated for a further 24 h to allow biofilm maturation. After removal of planktonic cells by washing, biofilms were quantified by the crystal violet assay or by PMA‐qPCR.
(§3) Biofilm quantification by crystal violet assay: Washed biofilms were fixed with methanol (100 μL) for 10 min. Following removal of methanol, the wells were air dried and stained with crystal violet solution (Clin‐Tech, Guildford, UK) for 20 min at room temperature. Excess stain was removed by washing, then the plate was air‐dried and bound crystal violet was re‐solubilised in acetic acid (33 %, 160 μL) prior to reading at 570 nm in a GENios microtitre plate reader (Tecan, Zürich, Switzerland).

[5] = system: C. albicans monospecies biofilm; experiment: PMA-qPCR viable cell number, C. albicans monospecies biofilm; format: cell-based, Candida albicans; conditions: peptoid 100 μM, 24 h; n=3
Method: as §2
(§4) Biofilm quantification by PMA‐modified qPCR: In order to determine the bactericidal and fungicidal activity of peptoids against single‐species and polymicrobial biofilms, the biofilms were detached from the microtitre plate wells prior to quantification. The wells were washed as above, then BHI broth (100 μL) was added and the plate was sealed. Biofilm detachment was achieved by sonication for 5 min in an ultrasonic bath (Dawe, Hayes, Middlesex, UK). The remaining cells were then collected in BHI (80 μL). […]
(§5) Generation of standard curves for PMA‐qPCR: For quantification of C. albicans, S. aureus and E. coli in single‐species and polymicrobial biofilms, DNA standards were prepared by extraction of DNA from planktonic organisms with the microLYSIS‐Plus kit and purification with a DNeasy kit (Qiagen). DNA standards (10^1–10^6 cells) were used in PMA‐qPCR assays to generate standard curves from which the numbers of living organisms within the biofilms could be determined.

[6] = system: S. aureus in polymicrobial biofilm with C. albicans; experiment: PMA-qPCR, S. aureus within C. albicans-S. aureus polymicrobial biofilm; format: cell-based, Staphylococcus aureus; conditions: 24 h; for Reduction of cell numbers of S. aureus in mixed-species biofilm: peptoid 10 μM, PMA-qPCR
Method: (§6) Preparation and treatment of polymicrobial biofilms: Overnight cultures of C. albicans were prepared in microtitre plates as above, and allowed to adhere for 4 h to facilitate initial biofilm formation. Planktonic C. albicans cells were removed as above before the addition of S. aureus or E. coli (100 μL, 5.0×10^6 cells per mL). Bacteria were allowed to adhere to the C. albicans biofilms for 4 h to facilitate polymicrobial biofilm formation. Following a washing step, the biofilms were then treated with peptoid (10–100 μM), and incubated for a further 24 h to allow biofilm maturation. Wells were washed as above, and the polymicrobial biofilms were quantified by PMA‐modified qPCR.
Biofilm quantification by PMA‐modified qPCR: In order to determine the bactericidal and fungicidal activity of peptoids against single‐species and polymicrobial biofilms, the biofilms were detached from the microtitre plate wells prior to quantification. The wells were washed as above, then BHI broth (100 μL) was added and the plate was sealed. Biofilm detachment was achieved by sonication for 5 min in an ultrasonic bath (Dawe, Hayes, Middlesex, UK). The remaining cells were then collected in BHI (80 μL). PMA (20 μL, 2 mM in broth;47 Biotium, Fremont, CA) was added to the biofilm suspensions […] and incubated (37 °C, 5 min) prior to photoactivation with a broad‐spectrum LED flood light (60 LED, 0.1 W) placed 15 cm from the tubes (mixed by inversion during the 20 min photoactivation step).48 DNA was extracted by using a microLYSIS‐Plus kit (Microzone, Haywards Heath, UK), and qPCR was performed in a Mx3005P qPCR System (Agilent Technologies).49, 50, 51 See the Tables in the Supporting Information.
as §5

[7] = system: C. albicans (NCTC 3179) biofilm; experiment: Crystal violet assay, C. albicans monospecies biofilm; format: cell-based, Candida albicans; conditions: peptoid 100 μM, 24 h treatment of 4 h biofilm; n=3
Method: as §1, §2, §3

[8] = system: E. coli monospecies biofilm; experiment: PMA-qPCR viable cell number, E. coli monospecies biofilm; format: cell-based, Escherichia coli; conditions: peptoid 100 μM, 24 h; n=3
Method: as §2, §4, §5

[9] = system: E. coli (ATCC 29522) biofilm; experiment: Crystal violet assay, E. coli monospecies biofilm; format: cell-based, Escherichia coli; conditions: peptoid 100 μM, 24 h treatment of 4 h biofilm; n=3
Method: as §1, §2, §3

[10] = system: HaCaT
Method: as §7, §8

[11] = system: HepG2
Method: as §7, §8

[12] = system: C. albicans in polymicrobial biofilm with S. aureus; experiment: PMA-qPCR, C. albicans within C. albicans-S. aureus polymicrobial biofilm; format: cell-based, Candida albicans; conditions: peptoid 100 μM, 24 h; n=3
Method: as §6, §4, §5

Compound | ED50 HepG2 [2] | ED50 HaCaT [3] | also measured
CC[C@H](C)[C@H](NC(=O)[C@H](CCCCN)NC(=O)[C@H](CCC(=O)O)NC(=O)[C@H](CCCCN)NC(=O)[C@H](CO)NC(=O)[C@H](CCCCN)NC(=O)[C@H](CCCNC(=N)N)NC(=O)[C@H](Cc1ccccc1)NC(=O)[C@H](Cc1ccccc1)NC(=O)[C@H](CC(=O)O)NC(=O)CNC(=O)[C@H](CC(C)C)NC(=O)[C@@H](N)CC(C)C)C(=O)NCC(=O)N[C@@H](CCCCN)C(=O)N[C@@H](CCC(=O)O)C(=O)N[C@@H](Cc1ccccc1)C(=O)N[C@@H](CCCCN)C(=O)N[C@@H](CCCNC(=N)N)C(=O)N[C@H](C(=O)N[C@H](C(=O)N[C@@H](CCC(N)=O)C(=O)N[C@@H](CCCNC(=N)N)C(=O)N[C@H](C(=O)N[C@@H](CCCCN)C(=O)N[C@@H](CC(=O)O)C(=O)N[C@@H](Cc1ccccc1)C(=O)N[C@@H](CC(C)C)C(=O)N[C@@H](CCCNC(=N)N)C(=O)N[C@@H](CC(N)=O)C(=O)N[C@@H](CC(C)C)C(=O)N[C@H](C(=O)N1CCC[C@H]1C(=O)N[C@@H](CCCNC(=N)N)C(=O)N[C@H](C(=O)N[C@@H](CCC(=O)O)C(=O)N[C@@H](CO)C(=O)O)[C@@H](C)O)C(C)C)[C@@H](C)CC)C(C)C)[C@@H](C)CC [LL‐37] |  |  | Degradation after treatment with trypsin [1]: degraded to peptide fragments
(NLysNpheNphe)2 [Peptoid 3] | > 100 µM | > 100 µM | 
(NLysNpheNphe)3 [Peptoid 2] | > 100 µM | > 100 µM | 
(NLysNpheNphe)4 [Peptoid 1] | > 100 µM | 36 ± 1 µM | 
(NLysNspeNspe)2 [Peptoid 6] | > 100 µM | > 100 µM | 
(NLysNspeNspe)3 [Peptoid 5] | > 100 µM | > 100 µM | Efficacy against S. aureus monospecies biofilm (biomass, crystal violet) [4]: amongst the most efficacious; Toxicity to HepG2 cells (in words) [2]: negligible toxicity; Reduction in viable cell number, C. albicans monospecies biofilm (PMA-qPCR) [5]: significant reduction in cell number; also recorded: the greatest reduction in cell number; Reduction of cell numbers of S. aureus in mixed-species biofilm [6]: ~100%; Reduction in S. aureus cell number in mixed biofilm with C. albicans (PMA-qPCR) ([6]; peptoid 100 μM, n=3): better able to reduce the cell count; Efficacy against C. albicans monospecies biofilm (biomass, crystal violet) [7]: amongst the most efficacious; Reduction in viable cell number, E. coli monospecies biofilm (PMA-qPCR) [8]: significant reduction in cell number; Toxicity to HaCaT cells (in words) [3]: negligible toxicity; Efficacy against E. coli monospecies biofilm (biomass, crystal violet) [9]: amongst the most efficacious
(NLysNspeNspe)4 [Peptoid 4] |  |  | ED50 HaCaT [10]: 20 ± 1 µM; ED50 HepG2 [11]: 29 ± 1 µM
(NaeNpheNphe)2 [Peptoid 9] | > 100 µM | > 100 µM | 
(NaeNpheNphe)3 [Peptoid 8] | > 100 µM | > 100 µM | 
(NaeNpheNphe)4 [Peptoid 7] | > 100 µM | > 100 µM | Efficacy against S. aureus monospecies biofilm (biomass, crystal violet) [4]: amongst the most efficacious; Toxicity to HepG2 cells (in words) [2]: negligible toxicity; Reduction in viable cell number, C. albicans monospecies biofilm (PMA-qPCR) [5]: significant reduction in cell number; Reduction of cell numbers of S. aureus in mixed-species biofilm [6]: ~100%; Reduction in C. albicans cell number in mixed biofilm with S. aureus (PMA-qPCR) [12]: the greatest reduction; Efficacy against C. albicans monospecies biofilm (biomass, crystal violet) [7]: amongst the most efficacious; Reduction in viable cell number, E. coli monospecies biofilm (PMA-qPCR) [8]: significant reduction in cell number; Toxicity to HaCaT cells (in words) [3]: negligible toxicity; Efficacy against E. coli monospecies biofilm (biomass, crystal violet) [9]: amongst the most efficacious
(NaeNspeNspe)2 [Peptoid 12] | > 100 µM | > 100 µM | 
(NaeNspeNspe)3 [Peptoid 11] | > 100 µM | > 100 µM | 
(NaeNspeNspe)4 [Peptoid 10] | 41 ± 2 µM | 26 ± 2 µM | 
(NahNpheNphe)2 [Peptoid 15] | > 100 µM | > 100 µM | 
(NahNpheNphe)3 [Peptoid 14] | > 100 µM | > 100 µM | 
(NahNpheNphe)4 [Peptoid 13] | > 100 µM | > 100 µM | 
(NahNspeNspe)2 [Peptoid 18] | > 100 µM | > 100 µM | 
(NahNspeNspe)4 [Peptoid 16] | 41 ± 1 µM | 23 ± 1 µM | 

— article PMC6680226, “Peptoid Efficacy against Polymicrobial Biofilms Determined by Using Propidium Monoazide‐Modified Quantitative PCR” (Chembiochem, 2016)
